Data as given in the supplement of paper PMC10307832.

Tests used:
Assay in all cases: relative viability (nuclei count vs DMSO), 5 days (fraction); higher = more cells survive
SW 900 = test system: SW 900
Procedure, shortened: (§1)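 The day after seeding in 1536-well plates, lung cancer cell lines were treated by pin tool with a single drug, or with a fixed anchor-drug dose together with five library-drug doses (not always all listed) in √10 steps. After 5 days, a combined fix-and-stain solution (final 0.05% Triton X-100, 1% formaldehyde, 1 ug/ml Hoechst) was added. Nuclei counted on 4× images gave relative viability as treated counts over vehicle counts, reported as the median of duplicate plates.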

SW 1573 = test system: SW 1573
Procedure, shortened: as §1

LOU-NH91 = test system: LOU-NH91
Procedure, shortened: as §1

NCI-H1793 = test system: NCI-H1793
Procedure, shortened: as §1

HOP-62 = test system: HOP-62
Procedure, shortened: as §1

EMC-BAC-2 = test system: EMC-BAC-2
Procedure, shortened: as §1

NCI-H727 = test system: NCI-H727
Procedure, shortened: as §1

NCI-H2405 = test system: NCI-H2405
Procedure, shortened: as §1

NCI-H2170 = test system: NCI-H2170
Procedure, shortened: as §1

NCI-H650 = test system: NCI-H650
Procedure, shortened: as §1

EPLC-272H = test system: EPLC-272H
Procedure, shortened: as §1

NCI-H1437 = test system: NCI-H1437
Procedure, shortened: as §1

NCI-H2009 = test system: NCI-H2009
Procedure, shortened: as §1

NCI-H441 = test system: NCI-H441
Procedure, shortened: as §1

NCI-H520 = test system: NCI-H520
Procedure, shortened: as §1

NCI-H460 = test system: NCI-H460
Procedure, shortened: as §1

NCI-H2126 = test system: NCI-H2126
Procedure, shortened: as §1

ChaGo-K-1 = test system: ChaGo-K-1
Procedure, shortened: as §1

NCI-H2023 = test system: NCI-H2023
Procedure, shortened: as §1

NCI-H2347 = test system: NCI-H2347
Procedure, shortened: as §1

NCI-H647 = test system: NCI-H647
Procedure, shortened: as §1

SMILES: COCC1(CO)C(=O)C2CCN1CC2 (centres undefined) [PRIMA-1MET] + Cc1nc(Nc2ncc(C(=O)Nc3c(C)cccc3Cl)s2)cc(N2CCN(CCO)CC2)n1 [Dasatinib] (partner 0.075 µM)
- relative viability (SW 900; first compound 0.2 µM): 0.632
- relative viability (SW 900; first compound 0.6325 µM): 0.642
- relative viability (SW 900; first compound 2 µM): 0.386
- relative viability (SW 900; first compound 6.325 µM): 0.0491
- relative viability (SW 900; first compound 20 µM): 0.0965
- relative viability (SW 1573; first compound 0.2 µM): 0.452
- relative viability (SW 1573; first compound 0.6325 µM): 0.411
- relative viability (SW 1573; first compound 2 µM): 0.356
- relative viability (SW 1573; first compound 6.325 µM): 0.0331
- relative viability (SW 1573; first compound 20 µM): 0.0202
- relative viability (LOU-NH91; first compound 0.2 µM): 0.608
- relative viability (LOU-NH91; first compound 0.6325 µM): 0.508
- relative viability (LOU-NH91; first compound 2 µM): 0.569
- relative viability (LOU-NH91; first compound 6.325 µM): 0.578
- relative viability (LOU-NH91; first compound 20 µM): 0.483
- relative viability (NCI-H1793; first compound 0.2 µM): 0.431
- relative viability (NCI-H1793; first compound 0.6325 µM): 0.365
- relative viability (NCI-H1793; first compound 6.325 µM): 0.404
- relative viability (NCI-H1793; first compound 20 µM): 0.35
- relative viability (HOP-62; first compound 0.2 µM): 0.637
- relative viability (HOP-62; first compound 0.6325 µM): 0.7
- relative viability (HOP-62; first compound 2 µM): 0.628
- relative viability (HOP-62; first compound 6.325 µM): 0.658
- relative viability (HOP-62; first compound 20 µM): 0.582
- relative viability (EMC-BAC-2; first compound 0.2 µM): 0.394
- relative viability (EMC-BAC-2; first compound 0.6325 µM): 0.298
- relative viability (EMC-BAC-2; first compound 6.325 µM): 0.378
- relative viability (EMC-BAC-2; first compound 20 µM): 0.247
- relative viability (NCI-H727; first compound 0.2 µM): 0.273
- relative viability (NCI-H727; first compound 0.6325 µM): 0.346
- relative viability (NCI-H727; first compound 2 µM): 0.351
- relative viability (NCI-H727; first compound 6.325 µM): 0.225
- relative viability (NCI-H727; first compound 20 µM): 0.166
- relative viability (NCI-H2405; first compound 0.2 µM): 0.197
- relative viability (NCI-H2405; first compound 0.6325 µM): 0.199
- relative viability (NCI-H2405; first compound 6.325 µM): 0.169
- relative viability (NCI-H2405; first compound 20 µM): 0.0902
- relative viability (NCI-H2170; first compound 0.2 µM): 0.554
- relative viability (NCI-H2170; first compound 0.6325 µM): 0.46
- relative viability (NCI-H2170; first compound 2 µM): 0.497
- relative viability (NCI-H2170; first compound 6.325 µM): 0.604
- relative viability (NCI-H2170; first compound 20 µM): 0.586
- relative viability (NCI-H650; first compound 0.2 µM): 0.565
- relative viability (NCI-H650; first compound 2 µM): 0.469
- relative viability (NCI-H650; first compound 6.325 µM): 0.472
- relative viability (NCI-H650; first compound 20 µM): 0.454
- relative viability (EPLC-272H; first compound 2 µM): 0.349
- relative viability (EPLC-272H; first compound 6.325 µM): 0.347
- relative viability (EPLC-272H; first compound 20 µM): 0.0979
- relative viability (NCI-H1437; first compound 0.2 µM): 0.435
- relative viability (NCI-H1437; first compound 0.6325 µM): 0.184
- relative viability (NCI-H1437; first compound 2 µM): 0.43
- relative viability (NCI-H1437; first compound 6.325 µM): 0.405
- relative viability (NCI-H1437; first compound 20 µM): 0.286
- relative viability (NCI-H2009; first compound 0.2 µM): 0.298
- relative viability (NCI-H2009; first compound 0.6325 µM): 0.314
- relative viability (NCI-H2009; first compound 2 µM): 0.294
- relative viability (NCI-H2009; first compound 6.325 µM): 0.142
- relative viability (NCI-H2009; first compound 20 µM): 0.0053
- relative viability (NCI-H441; first compound 0.2 µM): 0.461
- relative viability (NCI-H441; first compound 0.6325 µM): 0.728
- relative viability (NCI-H441; first compound 2 µM): 0.544
- relative viability (NCI-H441; first compound 6.325 µM): 0.571
- relative viability (NCI-H441; first compound 20 µM): 0.134
- relative viability (NCI-H520; first compound 0.2 µM): 0.203
- relative viability (NCI-H520; first compound 0.6325 µM): 0.204
- relative viability (NCI-H520; first compound 2 µM): 0.258
- relative viability (NCI-H520; first compound 6.325 µM): 0.176
- relative viability (NCI-H520; first compound 20 µM): 0.13
- relative viability (NCI-H460; first compound 0.2 µM): 0.495
- relative viability (NCI-H460; first compound 0.6325 µM): 0.321
- relative viability (NCI-H460; first compound 2 µM): 0.511
- relative viability (NCI-H460; first compound 6.325 µM): 0.518
- relative viability (NCI-H460; first compound 20 µM): 0.196
- relative viability (NCI-H2126; first compound 0.2 µM): 0.722
- relative viability (NCI-H2126; first compound 0.6325 µM): 0.58
- relative viability (NCI-H2126; first compound 2 µM): 0.643
- relative viability (NCI-H2126; first compound 6.325 µM): 0.646
- relative viability (NCI-H2126; first compound 20 µM): 0.605
- relative viability (ChaGo-K-1; first compound 0.2 µM): 0.626
- relative viability (ChaGo-K-1; first compound 0.6325 µM): 0.567
- relative viability (ChaGo-K-1; first compound 2 µM): 0.687
- relative viability (ChaGo-K-1; first compound 6.325 µM): 0.54
- relative viability (ChaGo-K-1; first compound 20 µM): 0.363
- relative viability (NCI-H2023; first compound 0.2 µM): 0.601
- relative viability (NCI-H2023; first compound 0.6325 µM): 0.586
- relative viability (NCI-H2023; first compound 2 µM): 0.567
- relative viability (NCI-H2023; first compound 6.325 µM): 0.57
- relative viability (NCI-H2023; first compound 20 µM): 0.229
- relative viability (NCI-H2347; first compound 0.2 µM): 0.766
- relative viability (NCI-H2347; first compound 0.6325 µM): 0.257
- relative viability (NCI-H2347; first compound 2 µM): 0.291
- relative viability (NCI-H2347; first compound 6.325 µM): 0.3
- relative viability (NCI-H2347; first compound 20 µM): 0.37
- relative viability (NCI-H647; first compound 0.2 µM): 0.165
- relative viability (NCI-H647; first compound 0.6325 µM): 0.16
- relative viability (NCI-H647; first compound 2 µM): 0.156
- relative viability (NCI-H647; first compound 6.325 µM): 0.173
- relative viability (NCI-H647; first compound 20 µM): 0.0339
